Data taken from patent US20100093613A1, “METHODS FOR IDENTIFYING AGENTS AND THEIR USE FOR THE PREVENTION OR STABILIZATION OF FIBROSIS” (priority 2007, published 2010).

Tested on: Bronchial epithelial cells + Fibroblasts
Test: BioMAP BF4T system (IL-4 + TNF-α), scoring of readout parameters
Type: cell-based, human
Parameters: key: 1 = modulated in desired direction, 0 = not (−1 if opposite)
Details: for MMP-3 score / PAI-1 score: desired change decrease; for MMP-1 score / uPA score: desired change increase
Protocol: In the “BF4T” system, bronchial epithelial cells, usually primary human bronchial epithelial cells, are cultured with fibroblasts, usually primary human fibroblasts, in the presence of TNF-α and IL-4. In addition to the factors, stimuli of interest that may be included in the culture medium include TGF-β, IL-5, II-10, IL-9, Tryptase, GM-CSF, II-17, CD40L, Histamine, IgE stimulated Mast Cells, LTB4 stimulated neutrophils, and PBMC stimulated with LPS or SAg.
Human neonatal fibroblasts (HDFn) and normal human bronchial epithelial cells (BrEPI) are used. Human lung fibroblasts (adult or neonatal) could also be used. HDFn are cultured in DMEM/F12 (50/50) from Cellgro, supplemented with LSGS kit (from Cascade Biologics); fetal bovine serum, 2% v/v, hydrocortisone 1 μg/ml, human epidermal growth factor 10 ng/ml, basic fibroblast growth factor 3 ng/ml and heparin 10 μg/ml, and penicillin/streptomycin amphotericin B solution (PSA). BrEPI are cultured in supplemented BEBM medium (Cambrex) at 2×10^4/ml. BrEPI may also be cultured with Bronchial/Tracheal Epithelial Cell Serum-Free Growth Medium (Cell Applications, Inc.) or F12/DMEM supplemented with 10 μg/ml rhu-insulin, 10 μg/ml transferrin, 10 ng/ml epidermal growth factor (EGF), 1 μM ethanolamine, 25 μg/ml aprotinin, 25 μg/ml glucose, 1 μM phosphoethanolamine, 5 μM triiodothyronine, 50 nM selenium, 1 nM hydrocortisone, 1 nM progesterone, 5 μM forskolin, 10 μM heregulin β177-244, 5 μl/ml fibronectin, 4 μl/ml bovine pituitary extract and retinoid acid. HDFn are plated for assays at 3×10^4 cells/ml. After 2 days, media is replaced with BrEPI media containing 10^4 BrEPI cells and cultured for a further 2 days.
Upon reaching confluency, the test agent or buffer control is added and the following are applied: 5 ng/ml of IL-4 and 5 ng/ml TNF-α (BF4T). After another 24 hours incubation (37° C., 5% CO2) the cultures are evaluated for the following parameters: CD90, Keratin 8/18, Eotaxin-3, I-TAC, ICAM-1, EGFR, IL-1α, IL-8, MCP-1, MMP-9, MMP-1, MMP-3, PAI-1, TGF-β3, TIMP-2, uPA, tPA, CD87 and VCAM-1. Additional readouts of interest may include IP-10, Elafin/SKALP, Endothelin-1, Gro-a, CD119, IL-6, GM-CSF, IL-16, FGF, PDGF, CD44, E-cadherin, CD40, IL-15Ralpha, CD1d, CD80, CD86, TARC, eotaxin-1, CD95, MCP-4 and MIP-3a. Other stimuli of interest include: TGFbeta, IL-5, II-10, IL-9, Tryptase, GM-CSF, II-17, CD40L, Histamine, IgE stimulated Mast Cells, LTB4 stimulated neutrophils, and PBMC stimulated with LPS or SAg.
Each screened compound is scored according to its modulation of the selected readout parameters. Compounds receive a positive score (score of 1) or negative score (score of 0) for each readout parameter set forth in Table 2 that is modulated in the desired direction. […] Parameters may be penalized by making the positive score a −1 for parameters where regulation is opposite to the desired direction.
Cell culture. Human umbilical vein endothelial cells (HUVEC) were pooled from multiple donors, cultured according to standard methods, and plated into microtiter plates at passage 4. Cell culture medium for all systems containing HUVEC included hydrocortisone. Coronary artery smooth muscle cells (CASM3C) and umbilical artery smooth muscle cells (HSM3C) were cultured according to standard procedures. Peripheral blood mononuclear cells (PBMC) were prepared from buffy coats from normal human donors according to standard methods. Monocyte-derived macrophages were differentiated in the presence of M-CSF for 7 d according to standard procedures. Human dermal fibroblasts were pooled from 3 donors, cultured according to standard methods, and plated confluent 24 h before stimulation. Cell culture medium for all systems containing fibroblasts and keratinocytes contained low hydrocortisone. Epidermal keratinocytes and bronchial epithelial cells from 3 donors were cultured according to standard procedures and pooled when plated into microtiter plates.

Compound	MMP-3 score	PAI-1 score	MMP-1 score	uPA score
Cn1cnc([N+](=O)[O-])c1Sc1ncnc2nc[nH]c12 [Azathioprine]	0	0	0	0
CCc1oc2ccccc2c1C(=O)c1cc(Br)c(O)c(Br)c1 [Benzbromarone]	1	0	0	0
C=C1CC[C@H](O)C/C1=C/C=C1\CCC[C@]2(C)[C@@H]([C@H](C)/C=C/[C@H](C)C(C)C)CC[C@@H]12 [Calciferol]	0	0	0	1
COc1cc2c(c(OC)c1OC)-c1ccc(OC)c(=O)cc1[C@@H](NC(C)=O)CC2 [Colchicine]	0	0	0	0
O=C(O)c1ccccc1Nc1cccc(C(F)(F)F)c1 [Flufenamic Acid]	0	1	0	0
Fc1ccc(C(OCCN2CCN(CCCc3ccccc3)CC2)c2ccc(F)cc2)cc1 [GBR 12909]	0	0	0	0
CCCCN(CCCC)CCC(O)c1cc2c(Cl)cc(Cl)cc2c2cc(C(F)(F)F)ccc12 (stereo not drawn) [Halofantrine]	0	1	0	0
CCN(CC)CCNc1ccc(CO)c2sc3ccccc3c(=O)c12 [Hycanthone]	0	0	0	0
O=c1cc(-c2ccc(O)c(O)c2)oc2cc(O)cc(O)c12 [Luteolin]	0	1	0	0
COC(=O)Nc1nc2ccc(SC(C)C)cc2[nH]1 [Methiazole]	1	1	0	0
C[C@]12C=CC(=O)C=C1CC[C@@H]1[C@@H]2[C@@H](O)C[C@@]2(C)[C@H]1CC[C@]2(O)C(=O)CO [Prednisolone]	0	0	0	0
Cc1c(Cl)cccc1Nc1ccccc1C(=O)O [Tolfenamic Acid]	1	1	0	0
COc1cc(-c2ccc(=O)[nH]n2)ccc1OC(F)F [Zardaverine]	0	1	0	0
(R)-(−)-Apomorphine	0	0	0	0
Antimycin A	0	0	0	1
